This is an account of results in ChEMBL document CHEMBL1143993, “Synthesis and structure-activity relationships of a series of substituted 2-(1H-furo[2,3-g]indazol-1-yl)ethylamine derivatives as 5-HT2C receptor agonists” (Bioorg Med Chem, 2008).

pEC50, pKi: −log10 of the molar value.

The target in test [1] is T1, 5-hydroxytryptamine receptor 2C (Homo sapiens, UniProt P28335).
T1 sequence (P28335 whole entry): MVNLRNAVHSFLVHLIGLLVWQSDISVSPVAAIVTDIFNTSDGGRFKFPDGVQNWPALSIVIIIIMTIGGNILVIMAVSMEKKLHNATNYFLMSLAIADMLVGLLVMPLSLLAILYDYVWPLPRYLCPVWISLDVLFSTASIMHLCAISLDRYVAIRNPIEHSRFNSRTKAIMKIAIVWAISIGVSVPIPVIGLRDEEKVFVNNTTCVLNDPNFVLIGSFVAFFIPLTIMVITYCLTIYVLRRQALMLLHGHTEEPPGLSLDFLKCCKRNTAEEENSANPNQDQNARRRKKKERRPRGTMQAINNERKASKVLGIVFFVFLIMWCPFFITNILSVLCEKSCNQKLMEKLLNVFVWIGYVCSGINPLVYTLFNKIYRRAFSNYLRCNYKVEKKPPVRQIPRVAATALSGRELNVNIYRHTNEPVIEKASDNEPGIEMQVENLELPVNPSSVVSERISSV
The experiment in a line: Displacement of [3H]5-HT from human 5HT2C receptor expressed in CHO cells. The format is cell-based. A general note: Loss of bound radioactivity is the signal in a displacement assay; it reports binding, not function.

Test [2] has as its target T2, 5-hydroxytryptamine receptor 2A (Homo sapiens, UniProt P28223). The experiment in a line: Displacement of [3H]5-HT from human 5HT2A receptor expressed in CHO cells. The format is cell-based.
For test [3], the target named is Serotonin 2 receptors; 5-HT2a & 5-HT2c (Homo sapiens) (UniProt P28223+P28335). Nature of the test: Selectivity for human 5HT2A to human 5HT2C.
Test [4] concerns the target T1, 5-hydroxytryptamine receptor 2C. The experiment in a line: Agonist activity at human cloned 5HT2C receptor expressed in CHO cells assessed as myo-[3H]inositol hydrolysis. The format is functional, cell-based.
For test [5], the target named is T2, 5-hydroxytryptamine receptor 2A. Nature of the test: Agonist activity at human cloned 5HT2A receptor expressed in CHO cells assessed as myo-[3H]inositol hydrolysis. It is filed as functional, cell-based.
Test [6] deals with T3, 5-hydroxytryptamine receptor 2C (Homo sapiens) (UniProt P28335).
T3 sequence (whole entry): T1 sequence (P28335 whole entry)
Nature of the test: Intrinsic activity at human cloned 5HT2C receptor expressed in CHO cells assessed as maximal stimulation of 10 uM 5HT-induced myo-[3H]inositol hydrolysis. It is filed as functional, cell-based.

The target of test [7] is T2, 5-hydroxytryptamine receptor 2A. Nature of the test: Intrinsic activity at human cloned 5HT2A receptor expressed in CHO cells assessed as maximal stimulation of 10 uM 5HT-induced myo-[3H]inositol hydrolysis. The format is functional, cell-based.
Test [8] addresses T4, 5-hydroxytryptamine receptor 2B (Homo sapiens, UniProt P41595). Nature of the test: Intrinsic activity at human cloned 5HT2B receptor expressed in HEK293-EBNA cells assessed as maximal stimulation of 10 uM 5HT-induced myo-[3H]inositol hydrolysis. The format is functional, cell-based.
For a further test, the species on record is Homo sapiens. The experiment in a line: Selectivity ratio of EC50 for human cloned 5HT2B receptor over EC50 for human cloned 5HT2C receptor.
The test system of test [9] is Rattus norvegicus. Nature of the test: Induction of penile erection in sc dosed rat. The format is functional. To be noted: read-out: MED.
The target of test [10] is T4, 5-hydroxytryptamine receptor 2B.
Description: Agonist activity at human cloned 5HT2B receptor expressed in HEK293-EBNA cells assessed as myo-[3H]inositol hydrolysis
In test [11] the test system is Rattus norvegicus. The experiment in a line: Induction of penile erection in po dosed rat. It is filed as functional. To be noted: read-out: MED.

Serotonin 2 receptors; 5-HT2a & 5-HT2c (Homo sapiens), sequence (P28223 whole entry, looked up, one chain of several): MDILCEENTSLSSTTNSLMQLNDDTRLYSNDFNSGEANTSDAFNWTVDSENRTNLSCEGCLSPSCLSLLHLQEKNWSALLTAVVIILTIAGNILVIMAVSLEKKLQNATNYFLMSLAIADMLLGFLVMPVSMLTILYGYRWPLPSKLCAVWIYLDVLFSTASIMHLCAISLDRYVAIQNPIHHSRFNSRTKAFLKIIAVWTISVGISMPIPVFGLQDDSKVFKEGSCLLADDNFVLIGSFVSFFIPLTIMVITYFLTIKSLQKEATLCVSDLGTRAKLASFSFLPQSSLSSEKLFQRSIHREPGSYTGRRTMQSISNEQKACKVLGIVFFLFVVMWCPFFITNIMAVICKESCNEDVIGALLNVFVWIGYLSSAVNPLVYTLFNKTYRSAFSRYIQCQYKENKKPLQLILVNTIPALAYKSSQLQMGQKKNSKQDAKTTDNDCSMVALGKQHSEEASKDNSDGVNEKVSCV
T2 sequence (P28223 whole entry): as the sequence (P28223 whole entry, looked up, one chain of several) above
T4 sequence (P41595 whole entry): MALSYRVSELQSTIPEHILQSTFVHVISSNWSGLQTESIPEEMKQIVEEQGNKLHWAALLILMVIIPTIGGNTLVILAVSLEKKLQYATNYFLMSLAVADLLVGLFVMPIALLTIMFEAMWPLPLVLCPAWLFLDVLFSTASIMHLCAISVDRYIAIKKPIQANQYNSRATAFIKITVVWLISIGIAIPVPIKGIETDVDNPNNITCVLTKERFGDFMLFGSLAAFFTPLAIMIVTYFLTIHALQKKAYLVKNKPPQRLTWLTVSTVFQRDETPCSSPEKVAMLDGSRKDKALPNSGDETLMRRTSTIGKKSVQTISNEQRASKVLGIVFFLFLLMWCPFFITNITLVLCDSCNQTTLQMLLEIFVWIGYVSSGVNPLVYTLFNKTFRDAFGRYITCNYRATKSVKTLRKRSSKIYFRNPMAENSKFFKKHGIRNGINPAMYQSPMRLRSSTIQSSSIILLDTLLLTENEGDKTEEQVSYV

A word on the pKi: it is −log10 of the Ki, conventionally taken in molar units. `C[C@H](N)Cn1ncc2ccc3ocnc3c21`: the pKi in test [1] was 7.23; in [2] it was 7.33. The Ratio Ki in test [3] turned out to be 1.

Turning to `CCc1cc2c(ccc3c(C)nn(C[C@H](C)N)c32)o1`, the pKi is 8.30 in test [1] and 7.34 in test [2]. Further, the Ratio Ki in test [3] amounted to 9.

Take `Cc1cc2c(ccc3cnn(C[C@H](C)N)c32)o1`: the values for the pKi in test [1] and in [2] were 9.70 and 9.11, respectively. In test [3], the Ratio Ki worked out at 4.

In the case of `C[C@H](N)Cn1ncc2ccc(F)cc21`, the figures for the pKi in test [1] and in [2] were 7.49 and 7.09, respectively. The Ratio Ki in test [3] is 3.

By pEC50 is commonly meant −log10 of the EC50, conventionally taken in molar units. By Emax is commonly meant the greatest response seen or fitted, relative to the assay's reference. As for `C[C@H](N)Cn1ccc2cc(F)c(Cl)cc21`, the pKi in test [1] was 7.59; in test [2] it was 7.41. For the same compound, the Ratio Ki in [3] turned out to be 2. Further, the pEC50 in test [4] was 7.28; in test [5], 6.40; in [10], 8.62. In addition, the Emax was 88% in [6], 91% in test [7] and 130% in test [8]. The Ratio EC50 in the test listed under Homo sapiens is 0.05. In addition, the minimal effective dose in the test with Rattus norvegicus [9] was 0.3 mg/kg.

Consider `CCCc1nn(C[C@H](C)N)c2c1ccc1occc12`, for which the pKi in test [1] is 7.60; in test [2], 7.19. In addition, the Ratio Ki in [3] was 3.

With `CC(C)c1cc2c(ccc3cnn(C[C@H](C)N)c32)o1`, the pKi in [1] was 7.70; in test [2], 7.06. In addition, the Ratio Ki in test [3] is 4.

On to `COc1nn(C[C@H](C)N)c2c1ccc1occc12`, for which the pKi in test [1] is 9.29. For the same compound, in test [3], the Ratio Ki was 17. Further, the minimal effective dose with Rattus norvegicus [9] amounted to 0.1 mg/kg.

In the case of `C[C@H](N)Cn1ncc2ccc(Cl)c(Cl)c21`, the pKi in [1] is 8.40; in test [2] it was 8.04. The Ratio Ki in test [3] is 2.

Regarding `COc1ccc2cnn(C[C@H](C)N)c2c1Cl`, the pKi in [1] was 6.85; in [2], 5.92. Also, in test [3], the Ratio Ki was found to be 9.

For `Cc1nn(C[C@H](C)N)c2c1ccc1occc12`, the pKi was 7.89 in test [1] and 7.77 in [2]. In test [3], the Ratio Ki is 1.

In the case of `COc1ccc2cnn(C[C@H](C)N)c2c1`, the figures for the pKi in test [1] and in [2] were 7.80 and 7.43, respectively. Moreover, the Ratio Ki in test [3] was found to be 2.

Regarding `CCc1nn(C[C@H](C)N)c2c1ccc1occc12`, the values for the pKi in test [1] and in test [2] were 8.60 and 7.96, respectively. Further, the Ratio Ki in test [3] was 4.

`C[C@H](N)Cn1ncc2ccc3sccc3c21`: the pKi in [1] was 8.85; in [2], 8.17. The Ratio Ki in test [3] was 5.

`CCc1cc2c(ccc3cnn(C[C@H](C)N)c32)o1`: the figures for the pKi in [1] and in [2] were 9.05 and 7.89, respectively. In addition, the Ratio Ki in test [3] amounted to 15. Further, the pEC50 was 9.00 in test [4], 7.03 in test [5] and 8.49 in test [10]. The Emax was found to be 76% in test [6], 97% in [7] and 110% in test [8]. Further, in the test listed under Homo sapiens, the Ratio EC50 turned out to be 3.2. The figures for the minimal effective dose with Rattus norvegicus [9] and with Rattus norvegicus [11] were 0.03 mg/kg and 0.3 mg/kg, respectively.

Regarding `CCc1cc2c(ccc3c(CC)nn(C[C@H](C)N)c32)o1`, the pKi in [1] was 8.57; in [2], 7.29. Besides, the Ratio Ki in [3] is 19.

Regarding `CCc1cc2c(ccc3c(OC)nn(C[C@H](C)N)c32)o1`, the values for the pKi in [1] and in [2] were 7.92 and 7.42, respectively. The Ratio Ki in [3] stood at 3.

In the case of `C[C@H](N)Cn1ncc2ccc3occc3c21`, the pKi in test [1] was 9.70; in test [2] it was 9.11. Further, the Ratio Ki in test [3] worked out at 4.

For the compound `C[C@H](N)Cn1ncc2cc(F)ccc21`, the results for the pKi in test [1] and in test [2] were 7.37 and 7.05, respectively. Moreover, the Ratio Ki in test [3] is 2.

Regarding `C[C@H](N)Cn1ncc2cc(Cl)c(Cl)cc21`, the pKi in [1] was 8.12; in test [2] it was 7.96. The Ratio Ki in [3] was 1.
